1 molecule from patent US10537611B2, “Methods of treating lung cancer” (Five Prime Therapeutics, Inc., priority 2011, dated 2020) can be followed below.

This data set is described as follows: Serum phosphate in rats. As to conditions: 50 mg/kg/day oral gavage, at 24 hour or 1 week of daily dosing. Format: in vivo, rat. Here is the method: In the first experiment, Sprague Dawley rats (Charles River Labs; N=5/group) were dosed with vehicle, 10, 50 or 200 mg/kg/qwk of FGFR1-ECD.339-Fc for four weekly doses and plasma concentrations of FGFR1-ECD.339-Fc were determined throughout the study by an ELISA based detection method.
In the second experiment, Sprague Dawley rats (Charles River Labs; N=5/group) were administered the FGFR kinase inhibitor PD173074 (Chemdea, Ridgewood, N.J.; 50 mg/kg/day) or vehicle control by oral gavage for 7 days; or were administered FGFR1-ECD.339-Fc (200 mg/kg) or appropriate vehicle weekly by intravenous administration. Blood samples were collected at the time points indicated and serum phosphate was determined at 24 and 168 hours post-initiation of dosing (Idexx laboratories, Westbrook, Mass.).

As for `CCN(CC)CCCCNc1ncc2cc(-c3cc(OC)cc(OC)c3)c(NC(=O)NC(C)(C)C)nc2n1` [PD173043], the plasma phosphate levels result was “significantly elevated”.
